Measured values reported in US20150080438A1, “6,7-Dihydro-5H-benzo[7]annulene derivatives, processes for their preparation, pharmaceutical products comprising them and their use for preparing medicaments” (Bayer Intellectual Property GmbH, priority 2011, published 2015).
Counter-ions that a name gives are not always drawn.

What was measured:
[1] = system: uterus growth induced by 17β-estradiol; assay: Anti-uterus growth test in the adult rat; type: in vivo; conditions: ovariectomized adult rat, percentage inhibition of uterus growth; for Anti-oestrogenic activity in vivo in % at a dose of 1 mg/kg (rat): 1 mg/kg s.c. d1-d3 with 1.5 μg/kg/day 17β-estradiol; for inhibition in vivo at 0.3 mg/kg: sc, 0.3 mg/kg s.c. d1-d3 with 1.5 μg/kg/day 17β-estradiol, read-out: Anti-oestrogenic activity in vivo in % at a dose of 0.3 mg/kg (rat)
From the text: The uterus of oestrogen-substituted rats can be used as a test model for detecting a direct action of substances with anti-oestrogenic properties. The parameter of oestrogenic action is estradiol-induced uterus growth in rats, which is inhibited by simultaneous administration of a substance with anti-oestrogenic action. The experimental animals (n=5-6 animals/group) were ovariectomized before the start of the test, to rule out the influence of endogenous oestrogens. After a phase of 6 to 10 days, the test substances are administered s.c. on 3 consecutive days (d1-d3) in combination with a substitution dose of 1.5 μg/kg/day of 17β-estradiol. 17β-estradiol alone serves as positive control, and the excipients serve as negative control. On day 4 (d4) the animals are killed, and the uteri and vaginae are removed and weighed. The organ weights are converted to mg/100 g body weight, then the mean value and the standard deviation are calculated for each dosage. The inhibition of uterus or vaginal growth induced by 17β-estradiol is shown as percentage inhibition. The selected claimed substances were investigated in adult female rats as described for their anti-oestrogenic, inhibitory action on the weight of the uterus. At the dosage used, the substances show a marked anti-oestrogenic action in vivo (Table 3 and Table 4).

oestrogen receptor (ER) = target: T1, oestrogen receptor (ER) (Homo sapiens, UniProt P03372); assay: Anti-oestrogenic action in MVLN cells (inhibition of estradiol-induced luciferase, transactivation antagonism); type: cell-based; conditions: inhibition of estradiol-induced luciferase activity, read-out: Anti-oestrogenic action in vitro: MVLN transactivation antagonism IC50
T1 construct: These MVLN cells express, along with the functional oestrogen receptor (ER), a reporter construct; endogenous in cells; host or cells: MVLN cells (MCF7 derivative with ER-responsive luciferase reporter)
T1 sequence (P03372 1-595): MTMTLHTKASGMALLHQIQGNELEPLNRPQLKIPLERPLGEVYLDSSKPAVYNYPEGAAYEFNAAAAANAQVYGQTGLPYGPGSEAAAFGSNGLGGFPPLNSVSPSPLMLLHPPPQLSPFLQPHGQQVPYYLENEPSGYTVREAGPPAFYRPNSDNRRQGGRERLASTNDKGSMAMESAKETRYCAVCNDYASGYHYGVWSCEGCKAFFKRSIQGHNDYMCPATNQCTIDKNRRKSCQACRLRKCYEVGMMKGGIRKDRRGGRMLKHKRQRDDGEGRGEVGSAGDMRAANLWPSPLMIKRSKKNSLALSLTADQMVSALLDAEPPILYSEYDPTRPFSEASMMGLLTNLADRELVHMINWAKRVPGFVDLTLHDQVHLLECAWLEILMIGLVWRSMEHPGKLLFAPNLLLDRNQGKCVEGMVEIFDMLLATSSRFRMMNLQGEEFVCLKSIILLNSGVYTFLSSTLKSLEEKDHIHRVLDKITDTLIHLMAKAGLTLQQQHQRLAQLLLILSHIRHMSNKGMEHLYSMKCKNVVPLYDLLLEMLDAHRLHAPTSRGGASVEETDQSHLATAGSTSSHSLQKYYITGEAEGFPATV
Summary of the method: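 MCF7-derived MVLN cells carrying an ER-driven luciferase reporter; test compounds applied with estradiol, and anti-oestrogenic action scored as inhibition of the estradiol-induced luciferase signal.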

[2] = system: ovarian estradiol synthesis; assay: Stimulation of ovarian oestrogen synthesis (HPG axis) in hormonally intact adult rats; type: in vivo, rat; conditions: 3 mg/kg daily for 10 days, quotient of peripheral estradiol values after and before treatment
From the text: The clinical use both of pure anti-oestrogens and of various SERMs for the treatment of premenopausal women is limited by their property of stimulating the ovaries through activation of the hypothalamic-pituitary-gonadal axis (HPG axis), which leads to the increase in peripheral estradiol levels (Palomba, S., Orio, F., Jr., Morelli, M., Russo, T., Pellicano, M., Zupi, E., Lombardi, G., Nappi, C., Panici, P. L., and Zullo, F. (2002). Raloxifene administration in premenopausal women with uterine leiomyomas: a pilot study. J Clin Endocrinol Metab 87, 3603-3608). This stimulation of the HPG axis is associated with penetration of the blood-brain barrier and penetration of the brain. To investigate the ovary-stimulating properties of the claimed pharmacological compounds, hormonally intact adult rats were treated with the substances daily for a period of 10 days. The study end point is the quotient of peripheral estradiol values after and before treatment.
Selected claimed pharmacological substances were investigated as described for their stimulating action on the HPG axis or ovarian estradiol synthesis. The selected substances show markedly less stimulation of the ovaries than the control compound raloxifene at equal dosages (cf. Table 5).

Row | SMILES | IC50 (oestrogen receptor (ER)) | Stimulation of ovarian oestrogen synthesis: factor at a dose of 3 mg/kg rat [2] | Anti-oestrogenic activity in vivo in % at a dose of 1 mg/kg (rat) [1] | inhibition in vivo at 0.3 mg/kg [1]
1 | CN(CCCCCC1=C(c2cccc(O)c2)CCCc2cc(O)ccc21)CCCC[S+]([O-])CCCC(F)(F)C(F)(F)F (racemic) [Example 6, 8-(3-Hydroxyphenyl)-9-[5-(methyl{4-[(RS)-(4,4,5,5,5-pentafluoropentyl)sulphinyl]butyl}amino)pentyl]-6,7-dihydro-5H-benzo[7]annulen-3-ol] | 4 nM | – | 64% | 22%
2 | CN(CCCCCCC1=C(c2cccnc2)CCCc2cc(O)ccc21)CCCS(=O)(=O)CCCC(F)(F)C(F)(F)F [Example 44, 9-[6-(Methyl{3-[(4,4,5,5,5-pentafluoropentyl)sulphonyl]propyl}amino)hexyl]-8-(3-pyridyl)-6,7-dihydro-5H-benzo[7]annulen-3-ol] | 7 nM | – | – | 32%
3 | CN(CCCCCCC1=C(c2ccccc2)CCCc2cc(O)ccc21)CCC[S+]([O-])CCCC(F)(F)C(F)(F)F (racemic) [Example 64, 9-[6-(Methyl{3-[(RS)-(4,4,5,5,5-pentafluoropentyl)sulphinyl]propyl}amino)hexyl]-8-phenyl-6,7-dihydro-5H-benzo[7]annulen-3-ol] | 5 nM | – | – | 85%
4 | CN(CCCCCC1=C(c2ccccc2)CCCc2cc(O)ccc21)CCCS(=O)(=O)CCCC(F)(F)C(F)(F)F [Example 3, 9-[5-(Methyl{3-[(4,4,5,5,5-pentafluoropentyl)sulphonyl]propyl}amino)pentyl]-8-phenyl-6,7-dihydro-5H-benzo[7]annulen-3-ol] | 15 nM | – | 64% | –
5 | CN(CCCCCCC1=C(c2cccc(S(C)(=O)=O)c2)CCCc2cc(O)ccc21)CCC[S+]([O-])CCCC(F)(F)C(F)(F)F (racemic) [Example 21, 8-(3-Mesylphenyl)-9-[6-(methyl{3-[(RS)-(4,4,5,5,5-pentafluoropentyl)sulphinyl]propyl}amino)hexyl]-6,7-dihydro-5H-benzo[7]annulen-3-ol] | 5 nM | – | – | 37%
6 | CN(CCCCCCC1=C(c2ccccc2)CCCc2c1ccc(O)c2Cl)CCCS(=O)(=O)CCCC(F)(F)C(F)(F)F [Example 102, 4-Chloro-9-[6-(methyl{3-[(4,4,5,5,5-pentafluoropentyl)sulphonyl]propyl}amino)hexyl]-8-phenyl-6,7-dihydro-5H-benzo[7]annulen-3-ol] | 32 nM | – | – | 24%
7 | CN(CCCCCC1=C(c2ccccc2)CCCc2cc(O)ccc21)CCCSCCCC(F)(F)C(F)(F)F [Example 1, 9-[5-(Methyl{3-[(4,4,5,5,5-pentafluoropentyl)sulphanyl]propyl}amino)pentyl]-8-phenyl-6,7-dihydro-5H-benzo[7]annulen-3-ol] | 37 nM | – | 65% | –
8 | CN(CCCCCCC1=C(c2cccc(O)c2)CCCc2cc(O)ccc21)CCCCCCS(=O)(=O)CCCC(F)(F)C(F)(F)F [Example 19, 8-(3-Hydroxyphenyl)-9-[6-(methyl{6-[(4,4,5,5,5-pentafluoropentyl)sulphonyl]hexyl}amino)hexyl]-6,7-dihydro-5H-benzo[7]annulen-3-ol] | 5 nM | – | – | 38%
9 | CN(CCCCCCC1=C(c2ccc(F)c(O)c2)CCCc2c1ccc(O)c2Cl)CCCS(=O)(=O)CCCC(F)(F)C(F)(F)F [Example 24, 4-Chloro-8-(4-fluoro-3-hydroxyphenyl)-9-[6-(methyl{3-[(4,4,5,5,5-pentafluoropentyl)sulphonyl]propyl}amino)hexyl]-6,7-dihydro-5H-benzo[7]annulen-3-ol] | 13 nM | – | – | 14%
10 | CN(CCCCCC1=C(c2ccc(S(C)(=O)=O)cc2)CCCc2cc(O)ccc21)CCC[S+]([O-])CCCC(F)(F)C(F)(F)F (racemic) [Example 46, 8-(4-Mesylphenyl)-9-[5-(methyl{3-[(RS)-(4,4,5,5,5-pentafluoropentyl)sulphinyl]propyl}amino)pentyl]-6,7-dihydro-5H-benzo[7]annulen-3-ol] | 14 nM | – | 31% | –
11 | O=C(c1ccc(OCCN2CCCCC2)cc1)c1c(-c2ccc(O)cc2)sc2cc(O)ccc12 [raloxifene hydrochloride, raloxifene, reference compound] | – | 3.1 | – | –

Further compounds by falling IC50 (oestrogen receptor (ER)), results first:

Row | IC50 (oestrogen receptor (ER)) | Stimulation of ovarian oestrogen synthesis: factor at a dose of 3 mg/kg rat [2] | SMILES | Anti-oestrogenic activity in vivo in % at a dose of 1 mg/kg (rat) [1] | inhibition in vivo at 0.3 mg/kg [1]
12 | 3 nM | – | CN(CCCCCCC1=C(c2ccccc2)CCCc2cc(O)ccc21)CCCCS(=O)(=O)CCCC(F)(F)F [Example 58, 9-[6-(Methyl{4-[(4,4,4-trifluorobutyl)sulphonyl]butyl}amino)hexyl]-8-phenyl-6,7-dihydro-5H-benzo[7]annulen-3-ol] | – | 88%
13 | 3 nM | – | CN(CCCCCCC1=C(c2cccc(O)c2)CCCc2cc(O)ccc21)CCCS(=O)(=O)CCCC(F)(F)C(F)(F)F [Example 13, 8-(3-Hydroxyphenyl)-9-[6-(methyl{3-[(4,4,5,5,5-pentafluoropentyl)sulphonyl]propyl}amino)hexyl]-6,7-dihydro-5H-benzo[7]annulen-3-ol] | – | 79%
14 | 3 nM | – | CN(CCCCCCC1=C(c2cccc(O)c2)CCCc2cc(O)ccc21)CCCS(=O)(=O)CCC(F)(F)F [Example 56, 8-(3-Hydroxyphenyl)-9-[6-(methyl{3-[(3,3,3-trifluoropropyl)sulphonyl]propyl}amino)hexyl]-6,7-dihydro-5H-benzo[7]annulen-3-ol] | – | 33%
15 | 3 nM | – | CN(CCCCCCC1=C(c2ccc(S(C)(=O)=O)cc2)CCCc2cc(O)ccc21)CCCS(=O)(=O)CCCC(F)(F)C(F)(F)F [Example 49, 8-(4-Mesylphenyl)-9-[6-(methyl{3-[(4,4,5,5,5-pentafluoropentyl)sulphonyl]propyl}amino)hexyl]-6,7-dihydro-5H-benzo[7]annulen-3-ol] | – | 72%
16 | 2 nM | – | CN(CCCCCCC1=C(c2cccc(O)c2)CCCc2cc(O)ccc21)CCCS(=O)(=O)CCCC(F)(F)F [Example 51, 8-(3-Hydroxyphenyl)-9-[6-(methyl{3-[(4,4,4-trifluorobutyl)sulphonyl]propyl}amino)hexyl]-6,7-dihydro-5H-benzo[7]annulen-3-ol] | – | 62%
17 | 2 nM | – | CN(CCCCCCC1=C(c2cc(O)ccc2F)CCCc2cc(O)ccc21)CCCS(=O)(=O)CCCC(F)(F)C(F)(F)F [Example 23, 8-(2-Fluoro-5-hydroxyphenyl)-9-[6-(methyl{3-[(4,4,5,5,5-pentafluoropentyl)sulphonyl]propyl}amino)hexyl]-6,7-dihydro-5H-benzo[7]annulen-3-ol] | – | 77%
18 | 1 nM | – | CN(CCCCCC1=C(c2ccc(O)c(F)c2)CCCc2cc(O)ccc21)CCC[S+]([O-])CCCC(F)(F)C(F)(F)F (racemic) [Example 37, 8-(3-Fluoro-4-hydroxyphenyl)-9-[5-(methyl{3-[(RS)-(4,4,5,5,5-pentafluoropentyl)sulphinyl]propyl}amino)pentyl]-6,7-dihydro-5H-benzo[7]annulen-3-ol] | – | 59%
